Reference: patent US20210041441A1, “DISCOVERY OF NOVEL MOLECULES AND REPURPOSED DRUGS FOR RAS FAMILY GTPases” (UNM Rainforest Innovations, priority 2018, published 2021)
Entries after “also recorded” stand apart in the source; their conditions may differ. Structures can show the parent of a compound that is named as a salt.

System: Ras family GTPases (KRas WT, G12v, G13d, G12a, G12c, G12d, Q61H, Q61L, Q61R; HRas WT, HRas G12v; CDC42 WT, CDC42 L61; Rac1 WT, Rac1 L61)
Assay: Multiplex flow cytometry Bodipy FL-GTP binding, compound screen and dose response
Details: for class of modulation of Bodipy-GTP binding to Ras family GTPases (pan activator, pan inhibitor, selective inhibitor, mixed activity modulator): multiplex, 10 nM Bodipy FL-GTP, compound 100-0.015 μM, normalized to DMSO; for selectivity among GTPases (RAS vs non-RAS, individual proteins) / activity or affinity relative to other compounds: multiplex dose response

Molecule: COc1ccc(C(=O)c2ccccc2O)c(O)c1 [Dioxybenzone]
- class of modulation of Bodipy-GTP binding to Ras family GTPases (pan activator, pan inhibitor, selective inhibitor, mixed activity modulator): pan activators
- class of modulation of Bodipy-GTP binding to Ras family GTPases (pan activator, pan inhibitor, selective inhibitor, mixed activity modulator) (listed as dioxybenzone): activators

Molecule: CCC(Cc1c(I)cc(I)c(N)c1I)C(=O)O (centres unmarked) [Iopanic acid]
- class of modulation of Bodipy-GTP binding to Ras family GTPases (pan activator, pan inhibitor, selective inhibitor, mixed activity modulator): pan activators
- class of modulation of Bodipy-GTP binding to Ras family GTPases (pan activator, pan inhibitor, selective inhibitor, mixed activity modulator) (listed as iopanic acid): activators

Molecule: COc1ccc2cc([C@H](C)C(=O)O)ccc2c1 [Naproxen]
- class of modulation of Bodipy-GTP binding to Ras family GTPases (pan activator, pan inhibitor, selective inhibitor, mixed activity modulator): pan activators
- class of modulation of Bodipy-GTP binding to Ras family GTPases (pan activator, pan inhibitor, selective inhibitor, mixed activity modulator) (listed as naproxen): Pan activators

Molecule: N#CSc1cc(SC#N)c(N)nc1N [PR-619]
- class of modulation of Bodipy-GTP binding to Ras family GTPases (pan activator, pan inhibitor, selective inhibitor, mixed activity modulator): pan inhibitors

Molecule: Cc1cc(I)ccc1Nc1c(C(=O)NOCC2CC2)cc(F)c(F)c1F [PD 198306]
- class of modulation of Bodipy-GTP binding to Ras family GTPases (pan activator, pan inhibitor, selective inhibitor, mixed activity modulator): mixed activity modulators
- class of modulation of Bodipy-GTP binding to Ras family GTPases (pan activator, pan inhibitor, selective inhibitor, mixed activity modulator) (listed as PD198306): mixed activity with mostly activation, but some inhibition as well; also recorded: modulators with mixed activity

Molecule: O=C1c2ccccc2S(=O)(=O)N1CCCCN1CCN(c2ncccn2)CC1 [Ipsapirone]
- class of modulation of Bodipy-GTP binding to Ras family GTPases (pan activator, pan inhibitor, selective inhibitor, mixed activity modulator): mixed activity modulators
- class of modulation of Bodipy-GTP binding to Ras family GTPases (pan activator, pan inhibitor, selective inhibitor, mixed activity modulator) (listed as ipsapirone): modulators with mixed activity

Molecule: CC(C(=O)O)c1ccc(-c2ccccc2)c(F)c1 (centres unmarked) [Flurbiprofen]
- class of modulation of Bodipy-GTP binding to Ras family GTPases (pan activator, pan inhibitor, selective inhibitor, mixed activity modulator): pan activators
- class of modulation of Bodipy-GTP binding to Ras family GTPases (pan activator, pan inhibitor, selective inhibitor, mixed activity modulator) (listed as fluribuprofen): Pan activators

Molecule: CC1=CC(=O)c2ccccc2C1=O [Menindione]
- class of modulation of Bodipy-GTP binding to Ras family GTPases (pan activator, pan inhibitor, selective inhibitor, mixed activity modulator): PanActivators

Molecule: O=C(Oc1ccccc1C(=O)O)c1ccccc1O [Salsalate]
- class of modulation of Bodipy-GTP binding to Ras family GTPases (pan activator, pan inhibitor, selective inhibitor, mixed activity modulator): pan activators
- class of modulation of Bodipy-GTP binding to Ras family GTPases (pan activator, pan inhibitor, selective inhibitor, mixed activity modulator) (listed as salsalate): Pan activators

Molecule: CC1(C)CCC2=C(O1)c1ccccc1C(=O)C2=O [Beta Lapachone]
- selectivity among GTPases (RAS vs non-RAS, individual proteins): RAS activator/non-RAS inhibitor
- class of modulation of Bodipy-GTP binding to Ras family GTPases (pan activator, pan inhibitor, selective inhibitor, mixed activity modulator): mixed activity modulators
- class of modulation of Bodipy-GTP binding to Ras family GTPases (pan activator, pan inhibitor, selective inhibitor, mixed activity modulator) (listed as B-lapachone): mixed activity
- class of modulation of Bodipy-GTP binding to Ras family GTPases (pan activator, pan inhibitor, selective inhibitor, mixed activity modulator) (listed as Beta-lapachone): modulators with mixed activity

Molecule: COc1ccc2cc([C@@H](C)C(=O)[O-])ccc2c1.[Na+] [(R)-Naproxen sodium salt]
- activity or affinity relative to other compounds: greater activity than did the naproxen sample
- class of modulation of Bodipy-GTP binding to Ras family GTPases (pan activator, pan inhibitor, selective inhibitor, mixed activity modulator) (listed as (R)-naproxen sodium salt, sodium salt): Pan activators
- class of modulation of Bodipy-GTP binding to Ras family GTPases (pan activator, pan inhibitor, selective inhibitor, mixed activity modulator) (sodium salt): pan activators

Molecule: CCN(CC)CCN(Cc1ccc(-c2ccc(C(F)(F)F)cc2)cc1)C(=O)Cn1c(SCc2ccc(F)cc2)nc(=O)c2c1CCC2 [Darapladib]
- class of modulation of Bodipy-GTP binding to Ras family GTPases (pan activator, pan inhibitor, selective inhibitor, mixed activity modulator): mixed activity modulators
- class of modulation of Bodipy-GTP binding to Ras family GTPases (pan activator, pan inhibitor, selective inhibitor, mixed activity modulator) (listed as darapladib): modulators with mixed activity

Molecule: Cc1cccc(Nc2ccccc2C(=O)O)c1C [Mefenamic Acid]
- class of modulation of Bodipy-GTP binding to Ras family GTPases (pan activator, pan inhibitor, selective inhibitor, mixed activity modulator): pan activators
- class of modulation of Bodipy-GTP binding to Ras family GTPases (pan activator, pan inhibitor, selective inhibitor, mixed activity modulator) (listed as mefenamic acid): Pan activators

Molecule: Cc1ccc(Cl)c(Nc2ccccc2C(=O)O)c1Cl [Meclofenamic acid sodium salt monohydrate]
- class of modulation of Bodipy-GTP binding to Ras family GTPases (pan activator, pan inhibitor, selective inhibitor, mixed activity modulator) (listed as meclofenamic acid sodium salt monohydrate, sodium salt monohydrate): Pan activators
- class of modulation of Bodipy-GTP binding to Ras family GTPases (pan activator, pan inhibitor, selective inhibitor, mixed activity modulator) (sodium salt monohydrate): pan activators

Molecule: O=C(O)c1ccccc1Nc1cccc(C(F)(F)F)c1 [Flufenamic Acid]
- class of modulation of Bodipy-GTP binding to Ras family GTPases (pan activator, pan inhibitor, selective inhibitor, mixed activity modulator): pan activators
- class of modulation of Bodipy-GTP binding to Ras family GTPases (pan activator, pan inhibitor, selective inhibitor, mixed activity modulator) (listed as fufenamic acid): Pan activators

Molecule: Nc1nc2ncc(CNc3ccc(C(=O)N[C@@H](CCC(=O)O)C(=O)O)cc3)nc2c(=O)[nH]1 [Folic acid]
- class of modulation of Bodipy-GTP binding to Ras family GTPases (pan activator, pan inhibitor, selective inhibitor, mixed activity modulator): pan inhibitors

Molecule: Cc1c(Cl)cccc1Nc1ccccc1C(=O)O [Tolfenamic acid]
- class of modulation of Bodipy-GTP binding to Ras family GTPases (pan activator, pan inhibitor, selective inhibitor, mixed activity modulator): pan activators
- class of modulation of Bodipy-GTP binding to Ras family GTPases (pan activator, pan inhibitor, selective inhibitor, mixed activity modulator) (listed as tolfenamic acid): Pan activators

Molecule: COc1cc(C)c(C(=O)Oc2cc(C)c(C(=O)O)c(O)c2C)c(OC)c1C [Diffractaic acid]
- class of modulation of Bodipy-GTP binding to Ras family GTPases (pan activator, pan inhibitor, selective inhibitor, mixed activity modulator): pan inhibitors
- class of modulation of Bodipy-GTP binding to Ras family GTPases (pan activator, pan inhibitor, selective inhibitor, mixed activity modulator) (listed as Diffractaic Acid): Pan inhibitors

Molecule: CN(C)CCCn1cc(C2=C(c3c[nH]c4ccccc34)C(=O)NC2=O)c2ccccc21 [GF109203X]
- selectivity among GTPases (RAS vs non-RAS, individual proteins): selective activator non-RAS
- class of modulation of Bodipy-GTP binding to Ras family GTPases (pan activator, pan inhibitor, selective inhibitor, mixed activity modulator): modulators with mixed activity

Molecule: CN1CCC(=C2c3ccccc3Sc3ccccc32)CC1 [Pimethixene Maleate]
- class of modulation of Bodipy-GTP binding to Ras family GTPases (pan activator, pan inhibitor, selective inhibitor, mixed activity modulator): mixed activity modulators
- class of modulation of Bodipy-GTP binding to Ras family GTPases (pan activator, pan inhibitor, selective inhibitor, mixed activity modulator) (listed as pimethixene maleate): modulators with mixed activity
- class of modulation of Bodipy-GTP binding to Ras family GTPases (pan activator, pan inhibitor, selective inhibitor, mixed activity modulator) (listed as pimethixine maleate): mixed activity

Molecule: Oc1ccc2ccccc2c1SSc1c(O)ccc2ccccc12 [IPA 3]
- class of modulation of Bodipy-GTP binding to Ras family GTPases (pan activator, pan inhibitor, selective inhibitor, mixed activity modulator): pan inhibitors

Molecule: O=C(NCCS(=O)(=O)c1ccc(C(F)(F)F)cn1)c1ccc(Cl)cc1 [GSK 3787]
- class of modulation of Bodipy-GTP binding to Ras family GTPases (pan activator, pan inhibitor, selective inhibitor, mixed activity modulator): pan inhibitors
- class of modulation of Bodipy-GTP binding to Ras family GTPases (pan activator, pan inhibitor, selective inhibitor, mixed activity modulator) (listed as GSK3787): Pan inhibitors

Molecule: CC(C)Cc1ccc(C(C)C(=O)O)cc1 (stereo not drawn) [S-(+)-Ibuprofen]
- activity or affinity relative to other compounds: lower affinity than the mixture

Molecule: O=c1c(O)c(-c2ccc(O)c(O)c2)oc2cc(O)ccc12 [Fisetin]
- class of modulation of Bodipy-GTP binding to Ras family GTPases (pan activator, pan inhibitor, selective inhibitor, mixed activity modulator): pan inhibitors

Molecule: A-7 hydrochloride
- class of modulation of Bodipy-GTP binding to Ras family GTPases (pan activator, pan inhibitor, selective inhibitor, mixed activity modulator): pan activators
